From patent publication US4788304A, “Phospholipase A2 inhibitors” (American Home Products Corporation, priority 1987, dated 1988) come the findings set out here.

As a reminder, the IC50 is the concentration needed to halve the response being measured. A word on the inhibition: it is the change of the read-out against control, counted positive when it falls. Usually ED50 stands for the dose at which the effect has come halfway, by size or by number of responders.

Read-outs that look alike come from different tables or passages of the source.

One assay concerns the target T1, human platelet PLA2 (Homo sapiens, UniProt P14555).
T1 construct: The PLA2 enriched supernatant fluid is removed and the amount of protein is determined by the Lowry method; from tissue; host or cells: expired human platelets from the blood bank (acid extract, not purified)
T1 sequence (P14555 21-144): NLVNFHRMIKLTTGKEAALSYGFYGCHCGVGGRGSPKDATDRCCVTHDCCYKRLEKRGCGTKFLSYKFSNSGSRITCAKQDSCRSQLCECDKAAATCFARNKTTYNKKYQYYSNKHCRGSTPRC
In words: Inhibition of cell free human platelet PLA2 (hydrolysis of [3H]-AA labelled E. coli phospholipids). It is filed as biochemical. The conditions noted are these: for inhibition at 50 µM: pH 7.4, 37° C. Here is the method: The ability of the compounds in the scope of the invention to inhibit the activity of cell free human platelet PLA2 enzyme is measured in the following in vitro assay.
E. coli, cultured to exponential growth, are sedimented for 15 minutes at 10,000 g and resuspended in sterile isotonic saline (1-3 ml). 10-25 μCi uniformly labeled [^3 H]-arachidonic acid (AA) is added to a sterile flask, evaporated by N2 and resolubilized with 0.3 ml 20% fatty acid-free bovine serum albumen (BSA). 75-100 ml of nutrient broth and 1 ml E. coli are then added to each flask and incubated for 2-3 hours at 37° C. [^3 H]-AA labelled E. coli are then sedimented, suspended in saline and added to fresh nutrient broth and incubated for 1.5 hours at 37° C. to complete [^3 H]-AA incorporation into the phospholipids. After overnight refrigeration of cultures, E. coli are again sedimented, suspended in saline and autoclaved for 15 minutes at 120° C. E. coli cultures are washed twice with saline (first wash contains 1 % BSA) and resuspended in saline. Non-labelled E. coli cultures are also prepared in the same manner. Cell number is determined by measuring the optical density at […] (3×10 cell/ml=1 O.D.). The amount of radioactivity associated with cells is determined by counting a defined volume of cell suspension. The specific activity is subsequently adjusted by adding non-labelled E. coli to yield 2-4×10 cpm per 1×10^10 E. coli.
Expired human platelets from the blood bank are centrifuged for 15 minutes at 200 g to obtain a platelet rich fraction and to remove the red blood cells. Platelets are sedimented for 15 minutes at 2500 g and the plasma is removed before adding cold 0.18N H2 SO4 (4 ml/unit). Platelets are homogenized, incubated for 1 hour at 4° C., homogenized again and centrifuged for 15 minutes at 10,000 g. The PLA2 enriched supernatant fluid is removed and the amount of protein is determined by the Lowry method. The preparation is divided into various portions and stored at -20° C.
The assay measures the hydrolysis of E. coli membrane phospholipids and the release of free [^3 H]-AA from the C-2 position of phospholipids by human platelet PLA2. To ice cold 15×100 mm test tubes, the following additions are made; 2.5×10^8 E. coli (equivalent to 5 nmol phospholipid), 5 mM Ca++, 100 mM Tris buffer (pH=7.4), 100 μg platelet extract (or an amount to produce 20-30% hydrolysis), drug or vehicle. Incubation are carried out at 37° C. in a shaking water bath for 30 minutes. The reaction is terminated by the addition of 2 volumes of tetrahydrofuran (THF) and the mixture is vortexed. Hydrolyzed [^3 H]-AA is separated from unhydrolyzed phospholipid by solid phase extraction using Bond elute NH2 columns (Analytichem Intermat.). Columns are conditioned with 0.5 ml THF followed by 0.5 ml THF:H2 O (2.0:0.1 ml v/v). Samples are loaded onto columns and hydrolyzed [^3 H]-AA is eluted with 1 ml THF:glacial acetic acid (98.0:2.0 ml v/v). The elutant is transferred to vials, 10 ml Optifluor is added and the radioactivity is determined by liquid scintillation counting.
Treatments are corrected for non-enzymatic hydrolysis by subtracting the dpms in treatments containing no enzyme. Mean [^3 H]-AA dpm is determined and a percent inhibition relative to vehicle treated samples is calculated.
The percent hydrolysis is calculated by the following equation: [formula]

Assay [1] deals with Naja mocambique mocambique PLA2. In words: Vascular cutaneous permeability induced by snake venom PLA2 in guinea pigs. Format: in vivo, guinea pig (Hartley). The conditions noted are these: for % Inhibition (PLA2-induced vascular permeability): standard drug.
For assay [2], the system named is synthesis of LTB4 by rat glycogen-elicited polymorphonuclear leukocytes (PMN). In words: Inhibition of LTB4 synthesis by rat glycogen-elicited polymorphonuclear leukocytes (PMN). It is filed as cell-based, rat (female Wistar). Particulars: Leukocyte, A23187-stimulated rat PMN.
The test system of assay [3] is rat carrageenan paw edema. In words: Rat carrageenan paw edema. Format: in vivo, rat (Sprague-Dawley). The conditions noted are these: 3 h; for % Inhibition of paw edema: at 50 mg/kg (peroral), 1 h prior to carrageenan. The method, then:
The compounds in the scope of the invention are further tested in the rat carrageenan paw edema to determine their ability to inhibit the acute inflammatory response.
[…] male Sprague-Dawley rats, in groups of 6 animals are injected subcutaneously in the right paw with 0.1 ml of 1% carrageenan at zero time. Mercury plethysmographic readings (ml) of the paw are made at zero time and 3 hours later. Test compounds are suspended or dissolved in 0.5% methylcellulose and given perorally 1 hour prior to carrageenan administration.
The increase in paw volume (edema in ml.) produced by the carrageenan is measured. Paw edema is calculated (3 hour volume minus zero time volume), and percent inhibition of edema is determined. Unpaired Student's t-test is used to determine statistical significance.
(Carrageenan injected into the paw causes an acute inflammation.)

The test system of assay [4] is oxazolone-induced contact hypersensitivity in the mouse ear. In words: Oxazolone-induced contact hypersensitivity in the mouse ear. It is filed as in vivo, mouse (Swiss Webster). The conditions noted are these: dosed at 1 mg/ear. Here is the method: The assay of this Example measures the ability of the compounds in the scope of the invention to inhibit oxazolone-induced contact hypersensitivity in the mouse ear.
Female, Swiss Webster mice (8 weeks old) are placed into groups of 6 and the abdominal area of each is shaved. The mice are sensitized to oxazolone (4-ethoxymethylene-2-phenyl-oxazol-5-one) by applying 100 μl of a 2% solution in 95% alcohol directly onto the shaved abdomen using an automatic pipette and rubbing the residual oxazolone into the skin with a round wooden stick. Six days after sensitization each mouse is challenged by applying 20 μl of a 2% oxazolone solution in 95% alcohol to the right ear (10 μl on each side) and 20 μl of alcohol alone to the left ear. Compounds for topical applications are prepared in acetone and administered to the right ear 30 min after challenge or 30 min prior to and 5 h after challenge; acetone (vehicle) is applied to the left ear. Compounds for oral administration are suspended in 0.5 ml of 0.5% methyl cellulose and given ten min prior to challenge. Ear thickness of both ears is measured in mm×10^-2 at 24 and 48 h after challenge using an Oditest caliper. Edema is calculated by subtracting the left ear thickness from the right ear thickness. Drug effects are determined by calculating the percentage change from control for each time period.

Assay [5] has as its system synthesis of the arachidonic acid cyclooxygenase oxidation product TxB2. In words: Inhibition of TxB2 synthesis (cyclooxygenase product) by rat polymorphonuclear leukocytes. Format: cell-based, rat (female Wistar). The conditions noted are these: Leukocyte, A23187-stimulated rat PMN.
Assay [6] concerns AA-induced mouse ear edema. In words: Arachidonic acid (AA)-induced murine ear edema test. It is filed as in vivo, mouse (Swiss Webster). Particulars: 1 mg/ear, 30 min prior to AA, measured 1 h after AA.
Assay [7] has as its system TPA-induced mouse ear edema. In words: TPA-induced murine ear edema test. Particulars: 1 mg/ear, 30 min after TPA, measured 4 h after TPA. Format: in vivo, mouse (Swiss Webster).
Where [8] appears, read: cell free human platelet PLA2, pH 7.4, 37° C., 30 min, read-out: IC50 (PLA2).

For `O=C(CBr)c1ccc(Br)cc1` [para-Bromophenacyl bromide, reference compound], half-maximal inhibition against human platelet PLA2 (IC50) required 23.7 µM.
As to `CN(C)CCC(c1ccc(Cl)cc1)c1ccccn1` (centres unmarked) [Chlorpheniramine], the “% Inhibition (PLA2-induced vascular permeability)” value in assay [1] (2 mg/kg p.o.) amounted to 45.0%.
Turning to `COC(=O)C1(C(=O)CCCCc2ccccc2)CO1` (centres unmarked) [Example 9, 2-(5-Phenyl-1-oxopentyl)-2-oxiranecarboxylic acid methyl ester], the values for the inhibition at 10 µM in assay [2] and in assay [5] were 7% and 1%, respectively. Also, in assay [3], the “% Inhibition of paw edema” value is 27%. On human platelet PLA2 (30 min), the inhibition at 50 µM is 81.8%. In addition, on human platelet PLA2 (setting [8]), the IC50 was 3.2 µM. Moreover, the “% Inhibition (oxazolone contact hypersensitivity)” value in assay [4] is given as 22.0%.
On to `COC(=O)C1(C(F)(F)CCCCOc2ccc(Cl)cc2)CO1` (centres unmarked) [6 (gem-difluoro compound), 2-[5-(4-Chlorophenoxy)-1,1-difluoropentyl]-2-oxiranecarboxylic acid methyl ester], for which the inhibition at 10 µM is 7% in assay [2] and 44% in assay [5]. At human platelet PLA2 (30 min), this compound registered an inhibition at 50 µM of 91.1%. Further, the IC50 on human platelet PLA2 (setting [8]) worked out at 8.4 µM.
Compound `COC(=O)C1(C(F)CCCCCOc2ccc(Cl)cc2)CO1` (single isomer, unassigned) [3 (isomer A), 2-[6-(4-Chlorophenoxy)-1-fluorohexyl]-2-oxiranecarboxylic acid methyl ester (isomer A)] yielded an inhibition at 50 µM against human platelet PLA2 (30 min) of 84.6%. On human platelet PLA2 (setting [8]), the IC50 turned out to be 19.2 µM.
`COC(=O)C1(C(=O)CCCCCOc2ccc(Cl)cc2)CO1` (centres unmarked) [Example 7A, 2-[6-(4-Chlorophenoxy)-1-oxohexyl]-2-oxiranecarboxylic acid methyl ester]: in assay [6], the “Mouse Ear Edema Assay, % Change from Control, TOPICAL, AA” value is on record as -59%. Besides, the values for the inhibition at 10 µM in assay [2] and in assay [5] were 30% and 38%, respectively. Moreover, in assay [3], the “% Inhibition of paw edema” value was 53%. For the same compound, at 50 µM the inhibition against human platelet PLA2 (30 min) was 88.4%. The IC50 at human platelet PLA2 (setting [8]) stood at 7.1 µM. In addition, the “Mouse Ear Edema Assay, % Change from Control, TOPICAL, TPA” value in assay [7] is -70%.
As for `COC(=O)C1(C(F)=CCCCOc2ccc(Cl)cc2)CO1` (centres unmarked) [6 (fluoro-vinyl compound), 2-[5-(4-Chlorophenoxy)-1-fluoro-1-pentenyl]-2-oxiranecarboxylic acid methyl ester], the results for the inhibition at 10 µM in assay [2] and in assay [5] were 15% and 33%, respectively. For the same compound, the “% Inhibition, iv at 100 mg/kg (PLA2-induced vascular permeability)” value in assay [1] was 32%. Further, the “% Inhibition of paw edema” value in assay [3] was 26%. The compound also registered an inhibition at 50 µM on human platelet PLA2 (30 min) of 99.5%. For the same compound, at human platelet PLA2 (setting [8]), the half-maximal inhibitory concentration (IC50) was found to be 3 µM.
On to `COc1ccc2c(c1)c(CC(=O)O)c(C)n2C(=O)c1ccc(Cl)cc1` [Indomethacin, reference compound], for which the “% Inhibition (PLA2-induced vascular permeability)” value in assay [1] (50 mg/kg p.o.) stood at 15.0%. For the same compound, the ED50 in assay [3] (Rattus norvegicus, po, read-out: Oral ED50 (95% C.L.)) amounted to 3.7 mg/kg.
In the case of `COC(=O)C1(C(F)(F)CCCCCOc2ccc(Cl)cc2)CO1` (centres unmarked) [7 (gem-difluoro compound), 2-[6-(4-Chlorophenoxy)-1,1-difluorohexyl]-2-oxiranecarboxylic acid methyl ester], the inhibition at 10 µM in assay [2] came out at 58%; in assay [5], 43%. The compound further came in with an inhibition at 50 µM on human platelet PLA2 (30 min) of 82%. For the same compound, on human platelet PLA2 (setting [8]), the IC50 was 11.3 µM.
With `COC(=O)C1(C(F)CCCCOc2ccc(Cl)cc2)CO1` (single isomer, unassigned) [2 (isomer A), 2-[5-(4-Chlorophenoxy)-1-fluoropentyl]-2-oxiranecarboxylic acid methyl ester (isomer A)], the inhibition at 50 µM at human platelet PLA2 (30 min) is 83.8%. Also, the IC50 at human platelet PLA2 (setting [8]) is 13.8 µM.
Turning to `CCOC(=O)C1(CCCCCc2ccc(Cl)cc2)CO1` (centres unmarked) [Example 10, 2-[5-(4-Chlorophenyl)pentyl]-2-oxiranecarboxylic acid ethyl ester], the “Mouse Ear Edema Assay, % Change from Control, TOPICAL, AA” value in assay [6] was -73%. The inhibition at 10 µM in assay [2] was 23%; in assay [5] it was 4%. Besides, the “% Inhibition, iv at 100 mg/kg (PLA2-induced vascular permeability)” value in assay [1] is on record as 24.1%. Also, in assay [3], the “% Inhibition of paw edema” value is recorded as 42%. The compound further registered an inhibition at 50 µM on human platelet PLA2 (30 min) of 97.2%. For the same compound, the IC50 at human platelet PLA2 (setting [8]) amounted to 1.6 µM. In addition, in assay [7], the “Mouse Ear Edema Assay, % Change from Control, TOPICAL, TPA” value is -45%.
As to `NC1=NN(c2cccc(C(F)(F)F)c2)CC1` [BW 755c], the “% Inhibition (PLA2-induced vascular permeability)” value in assay [1] (200 mg/kg p.o.) was 65.3%.
For the compound `COC(=O)C1(C(F)CCCCCOc2ccc(Cl)cc2)CO1` (single isomer, unassigned) [Example 3, 2-[6-(4-Chlorophenoxy)-1-fluorohexyl]-2-oxiranecarboxylic acid methyl ester], the inhibition at 10 µM in assay [2] was 17%; in assay [5], 34%.
`CCCCC/C=C\C/C=C\C/C=C\C/C=C\CCCC(=O)O` [Arachidonic Acid, reference compound] came in with an IC50 at human platelet PLA2 of 10.1 µM.
Regarding `COC(=O)C1(C(F)CCCCc2ccccc2)CO1` (single isomer, unassigned) [Example 1 (isomer A), 2-(1-Fluoro-5-phenylpentyl)-2-oxiranecarboxylic acid methyl ester (isomer A)], at 50 µM the inhibition on human platelet PLA2 (30 min) was 88%. At human platelet PLA2 (setting [8]), the IC50 came out at 2.6 µM.
As for `C[C@@H]1C[C@H]2[C@@H]3CCC4=CC(=O)C=C[C@]4(C)[C@@]3(F)[C@@H](O)C[C@]2(C)[C@@]1(O)C(=O)CO` [Dexamethasone], the “% Inhibition (PLA2-induced vascular permeability)” value in assay [1] (10 mg/kg p.o.) worked out at 49.0%.
